# According to patent publication US9763957B2, “Autotaxin inhibitors” (Novartis AG, priority 2013, dated 2017):
# Molecular target: Recombinant human ATX (Homo sapiens (Human), UniProt Q13822)
# Assay: ATX inhibition assay (choline release, Amplex Red fluorescence)
# Assay type: biochemical
# Conditions: ATX 10 nM, LPC 18:1 10 μM, 37° C., 20 min pre-incubation; mean of n≧2
# Method in brief: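 Activity was taken from the slope of resorufin fluorescence (530/590 nm, read every 2 min for 40 min at 37 °C) produced by choline liberated from 10 μM oleoyl LPC.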
row,Compound,IC50
1,"Cc1nnn(Cc2cc(Cl)ccc2/C=C/C(=O)N2CCC(CCN(C)C(=O)c3c[nH]c(=O)o3)CC2)n1 [Example 148, (E)-N-(2-(1-(3-(4-Chloro-2-((5-methyl-2H-tetrazol-2-yl)methyl)phenyl)acryloyl)piperidin-4-yl)ethyl)-N-methyl-2-oxo-2,3-dihydrooxazole-5-carboxamide]",8.9 nM
2,"Cc1nnn(Cc2cc(Cl)ccc2/C=C/C(=O)N2CCN(C3CCN(C(=O)c4c[nH]nn4)CC3)CC2)n1 [Example 149, (E)-1-(4-(1-(1H-1,2,3-Triazole-4-carbonyl)piperidin-4-yl)piperazin-1-yl)-3-(4-chloro-2-((5-methyl-2H-tetrazol-2-yl)methyl)phenyl)prop-2-en-1-one]",4.9 nM
3,"CCOc1c(NCCC2CN(C(=O)/C=C/c3ccc(Cl)cc3Cn3nnc(C)n3)CCO2)c(=O)c1=O (stereo not shown) [Example 150, (E)-3-((2-(4-(3-(4-Chloro-2-((5-methyl-2H-tetrazol-2-yl)methyl)phenyl)acryloyl)morpholin-2-yl)ethyl)amino)-4-ethoxycyclobut-3-ene-1,2-dione]",6.9 nM
4,"Cc1nnn(Cc2cc(Cl)ccc2/C=C/C(=O)N2CCC(NC(=O)CCCc3c[nH]nn3)CC2)n1 [Example 151, (E)-N-(1-(3-(4-Chloro-2-((5-methyl-2H-tetrazol-2-yl)methyl)phenyl)acryloyl)piperidin-4-yl)-4-(1H-1,2,3-triazol-4-yl)butanamide]",3.1 nM
5,"Cc1nnn(Cc2cc(C(F)(F)F)ccc2/C=C/C(=O)N2CCC(NC(=O)CCCc3c[nH]nn3)CC2)n1 [Example 152, (E)-N-(1-(3-(2-((5-Methyl-2H-tetrazol-2-yl)methyl)-4-(trifluoromethyl)phenyl)acryloyl)piperidin-4-yl)-4-(1H-1,2,3-triazol-4-yl)butanamide]",3.9 nM
6,"Cc1nnn(Cc2cc(C(F)(F)F)ccc2CCC(=O)N2CCC(CCCCCc3c[nH]nn3)CC2)n1 [Example 153, 1-(4-(5-(1H-1,2,3-Triazol-4-yl)pentyl)piperidin-1-yl)-3-(2-((5-methyl-2H-tetrazol-2-yl)methyl)-4-(trifluoromethyl)phenyl)propan-1-one]",2 nM

# Second part, the compound after the results:
row,IC50,Compound
1,2.4 nM,"Cc1nnn(Cc2cc(C(F)(F)F)ccc2OCC(=O)N2CCC(CCCCCc3c[nH]nn3)CC2)n1 [Example 154, 1-(4-(5-(1H-1,2,3-Triazol-4-yl)pentyl)piperidin-1-yl)-2-(2-((5-methyl-2H-tetrazol-2-yl)methyl)-4-(trifluoromethyl)phenoxy)ethanone]"
2,13 nM,"Cc1nnn(Cc2cc(C(F)(F)F)ccc2/C=C/C(=O)N2CCC(NCCCCc3c[nH]nn3)CC2)n1 [Example 155, (E)-1-(4-((4-(1H-1,2,3-Triazol-4-yl)butyl)amino)piperidin-1-yl)-3-(2-((5-methyl-2H-tetrazol-2-yl)methyl)-4-(trifluoromethyl)phenyl)prop-2-en-1-one]"
3,5.3 nM,"Cc1nnn(Cc2cc(C(F)(F)F)ccc2/C=C/C(=O)N2CCC(NC(=O)CCCCCc3cnn[nH]3)CC2)n1 [Example 156, (E)-N-(1-(3-(2-((5-Methyl-2H-tetrazol-2-yl)methyl)-4-(trifluoromethyl)phenyl)acryloyl)piperidin-4-yl)-6-(1H-1,2,3-triazol-5-yl)hexanamide]"
4,9.2 nM,"Cc1nnn(Cc2cc(C(F)(F)F)ccc2/C=C/C(=O)N2CCC(CCOCCc3cnn[nH]3)CC2)n1 [Example 157, (E)-1-(4-(2-(2-(1H-1,2,3-Triazol-5-yl)ethoxy)ethyl)piperidin-1-yl)-3-(2-((5-methyl-2H-tetrazol-2-yl)methyl)-4-(trifluoromethyl)phenyl)prop-2-en-1-one]"
